Reference: the supplement of paper PMC10307832

Tests used:
Test in all cases: relative viability (nuclei count vs DMSO), 5 days (fraction); higher = more cells survive
[1] = compound: CC(C)C[C@H](NC(=O)[C@H](Cc1ccccc1)NC(=O)c1cnccn1)B(O)O [Bortezomib] + Nc1nc2[nH]cc(CCc3ccc(C(=O)N[C@@H](CCC(=O)O)C(=O)O)cc3)c2c(=O)[nH]1 [Pemetrexed] (partner 0.2 µM)
Procedure, shortened: (§1)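 A single step with final 0.05% Triton X-100, 1% formaldehyde and 1 ug/ml Hoechst fixed the cells and stained nuclei 5 days after treatment. Lung cancer cell lines in 1536-well plates had been treated by pin tool the day after seeding with one drug alone or a fixed anchor-drug dose plus five library-drug doses (not always all listed) in √10 steps, and nuclei were counted on 4× images. Relative viability is the ratio of nuclei in treated wells to nuclei in vehicle wells, taken as the median of duplicate plates.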

[2] = compound: CC1=CC(=NN1)NC2=CC(=NC(=N2)/C=C/C3=CC=CC=C3)N4CCN(CC4)C + C[C@@H](Oc1cc(-c2cnn(C3CCNCC3)c2)cnc1N)c1c(Cl)ccc(F)c1Cl [Crizotinib] (partner 1 µM)
Procedure, shortened: as §1

[3] = compound: CC1=CC(=NN1)NC2=CC(=NC(=N2)/C=C/C3=CC=CC=C3)N4CCN(CC4)C + Cc1cc(Nc2cc(N3CCN(C)CC3)nc(Sc3ccc(NC(=O)C4CC4)cc3)n2)n[nH]1 [Tozasertib] (partner 0.1 µM)
Procedure, shortened: as §1

[4] = compound: COC1=CC(c2cc3ccccc3[nH]2)=N/C1=C\c1[nH]c(C)cc1C [Obatoclax] + Nc1nc2[nH]cc(CCc3ccc(C(=O)N[C@@H](CCC(=O)O)C(=O)O)cc3)c2c(=O)[nH]1 [Pemetrexed] (partner 0.2 µM)
Procedure, shortened: as §1

Cell Line | relative viability ([1]; first compound 0.0002 µM) | relative viability ([1]; first compound 0.000632 µM) | relative viability ([1]; first compound 0.002 µM) | relative viability ([1]; first compound 0.006325 µM) | relative viability ([1]; first compound 0.02 µM) | relative viability ([2]; first compound 0.08 µM) | relative viability ([2]; first compound 0.253 µM) | relative viability ([2]; first compound 0.8 µM) | relative viability ([2]; first compound 2.53 µM) | relative viability ([2]; first compound 8 µM) | relative viability ([3]; first compound 0.08 µM) | relative viability ([3]; first compound 0.253 µM) | relative viability ([3]; first compound 0.8 µM) | relative viability ([3]; first compound 2.53 µM) | relative viability ([3]; first compound 8 µM) | relative viability ([4]; first compound 0.01 µM) | relative viability ([4]; first compound 0.03162 µM) | relative viability ([4]; first compound 0.1 µM) | relative viability ([4]; first compound 0.3162 µM) | relative viability ([4]; first compound 1 µM)
201T | 0.338 | 0.327 | 0.321 | 0.353 | 0.308 | 1.01 | 1.07 | 0.965 | 0.982 | 0.786 | 0.973 | 0.916 | 0.746 | 0.388 | 0.25 | 0.339 | 0.315 | 0.282 | 0.34 | 0.359
LC-2-ad | 0.255 | 0.271 | 0.255 | 0.252 | 0.185 | 0.475 | 0.469 | 0.365 | 0.303 | 0.186 | 0.45 | 0.409 | 0.358 | 0.224 | 0.204 | 0.268 | 0.285 | 0.261 | 0.264 | 0.285
NCI-H596 | 0.487 | 0.488 | 0.45 | 0.268 | 0.221 | 0.984 | 1.04 | 0.857 | 0.554 | 0.197 | 0.783 | 1.01 | 0.896 | 0.508 | 0.244 | 0.516 | 0.504 | 0.459 | 0.467 | 0.429
NCI-H1437 | 0.284 | 0.301 | 0.351 | 0.172 | 0.157 | 0.773 | 0.922 | 0.898 | 0.999 | 0.225 | 0.422 | 0.462 | 0.424 | 0.344 | 0.201 | 0.305 | 0.344 | 0.324 | 0.307 | 0.319
NCI-H727 | – | – | – | – | – | 0.856 | 0.805 | 0.767 | 0.348 | 0.185 | 0.568 | 0.533 | 0.578 | 0.407 | 0.267 | – | – | – | – | –
PC-3 [JPC-3] | 1.02 | 1.14 | 0.727 | 0.196 | 0.184 | 0.931 | 1 | 0.917 | 0.878 | 0.74 | 0.886 | 0.899 | 0.839 | 0.74 | 0.461 | 1.07 | 0.933 | 0.925 | 0.645 | 0.476
SW 1573 | 0.844 | 0.993 | 0.76 | 0.0663 | 0.0512 | 0.886 | 0.829 | 0.604 | 0.194 | 0.1 | 0.213 | 0.162 | 0.162 | 0.133 | 0.0849 | 0.824 | 0.938 | 0.887 | 0.427 | 0.196
NCI-H2228 | 0.369 | 0.356 | 0.275 | 0.112 | 0.0808 | 0.586 | 0.45 | 0.33 | 0.0992 | 0.0441 | 0.193 | 0.214 | 0.158 | 0.086 | 0.0648 | 0.317 | 0.308 | 0.367 | 0.304 | 0.274
NCI-H1650 | 0.403 | 0.335 | 0.141 | 0.13 | 0.186 | 1.07 | 1.05 | 0.63 | 0.192 | 0.109 | 0.384 | 0.384 | 0.373 | 0.187 | 0.169 | 0.397 | 0.356 | 0.361 | 0.377 | 0.331
NCI-H1944 | 0.564 | 0.546 | 0.636 | 0.47 | 0.151 | 1.04 | 1.24 | 1.11 | 0.62 | 0.275 | 0.266 | 0.284 | 0.223 | 0.184 | 0.136 | 0.649 | 0.551 | 0.638 | 0.608 | 0.602
NCI-H1792 | 0.656 | 0.837 | 0.827 | 0.4 | 0.057 | 0.942 | 0.982 | 0.966 | 0.815 | 0.165 | – | – | – | – | – | 0.909 | 0.58 | 0.459 | 0.799 | 0.386
Calu-6 | – | – | – | – | – | 0.735 | 0.622 | 0.345 | 0.197 | 0.101 | – | – | – | – | – | – | – | – | – | –
NCI-H1395 | 0.77 | 0.767 | 0.579 | 0.26 | 0.264 | – | – | – | – | – | 0.76 | 0.751 | 0.566 | 0.496 | 0.315 | 0.84 | 0.781 | 0.827 | 0.711 | 0.657
NCI-H2342 | 0.801 | 0.783 | 0.739 | 0.752 | 0.712 | – | – | – | – | – | 0.527 | 0.503 | 0.438 | 0.376 | 0.324 | 0.836 | 0.775 | 0.683 | 0.641 | 0.757
NCI-H1299 | – | – | – | – | – | 0.951 | 0.938 | 0.938 | 0.442 | 0.222 | – | – | – | – | – | – | – | – | – | –
NCI-H1703 | – | – | – | – | – | 0.636 | 0.597 | 0.339 | 0.101 | 0.0884 | – | – | – | – | – | – | – | – | – | –
NCI-H522 | 1.29 | 1.04 | 1.08 | 0.442 | 0.35 | – | – | – | – | – | 0.559 | 0.579 | 0.684 | 0.462 | 0.399 | 0.955 | 1 | 1.33 | 1.09 | 0.872
NCI-H1623 | – | – | – | – | – | – | – | – | – | – | 0.4 | 0.441 | 0.414 | 0.397 | 0.342 | – | – | – | – | –
ABC-1 | – | – | – | – | – | 0.866 | 1.25 | 0.562 | 0.182 | 0.169 | 0.191 | 0.164 | 0.191 | 0.207 | 0.182 | – | – | – | – | –
IA-LM | – | – | – | – | – | – | 0.899 | 0.884 | 0.38 | 0.0798 | – | – | – | – | – | – | – | – | – | –
NCI-H1563 | 0.885 | 0.848 | 0.744 | 0.809 | 0.575 | 0.985 | 0.896 | 0.904 | 0.65 | 0.614 | – | – | – | – | – | 0.803 | 0.713 | 0.583 | 0.727 | 0.896
NCI-H1648 | 0.62 | 0.592 | 0.753 | 0.468 | 0.334 | – | – | – | – | – | 0.42 | 0.543 | 0.643 | 0.46 | 0.215 | 0.758 | 0.746 | 1.06 | 0.64 | 0.782
